Data taken from patent US10752615B2, “Spirocyclic containing compounds and pharmaceutical uses thereof” (GB005, Inc., priority 2016, dated 2020).

How the values were obtained:
TXK = TXK (Homo sapiens (Human), UniProt P42681); assay: Kinase inhibition assay (Nanosyn, microfluidic detection), TXK; assay type: biochemical; settings: 1 mM ATP, 3 hours at 25° C.
Procedure: The in vitro kinase assays were performed at Nanosyn (Santa Clara, Calif.) utilizing microfluidic detection technology. The test compounds were serially pre-diluted in DMSO and added, by the acoustic dispensing (Labcyte® 550), directly to 384 well assay plates into 10 uL of a buffer with enzyme (ITK, TXK, BTK or TEC) comprising: 100 mM HEPES, pH7.5, 5 mM MgCl2, 0.1% bovine serum albumin, 1 mM DTT, 0.01% Triton X-100 and the enzyme. Final DMSO concentration was maintained at 1% in all samples, including the controls. The reactions were initiated by addition of ATP (1 mM final concentration) and the fluorescently labeled peptide substrate to a final concentration of 1 uM, and incubated for 3 hours at 25° C. Following incubation, the reactions were quenched by addition of 40 μL of termination buffer (100 mM HEPES, pH7.5, 0.01% Triton X-100, 50 mM EDTA). Terminated plates were analyzed using Caliper LabChip® 3000 microfluidic electrophoresis instrument (Caliper Life Sciences/Perkin Elmer). […] As substrate and product are separated by electrophoresis, two peaks of fluorescence are observed. Change in the relative fluorescence intensity of the substrate and product peaks was the parameter measured, reflecting enzyme activity. In the presence of inhibitor, the ratio between product and substrate is altered: signal of the product decreases, while the signal of the substrate increases. Activity in each test sample was determined as the product to sum ratio (PSR): P/(S+P), where P is the peak height of the product and S is the peak height of the […]. For each compound, enzyme activity was measured at 12 concentrations spaced by 3× dilution intervals. Negative control samples (0%-inhibition in the absence of inhibitor, DMSO only) and positive control samples (100%-inhibition, in the absence of enzyme or in the presence of control inhibitor) were assembled in replicates of four and were used to calculate %-inhibition values in the presence of compounds. Percent inhibition (Pinh) was determined using the following equation: Pinh=(PSR0%−PSRinh)/(PSR0%−PSR100%)*100, where PSRinh is the product sum ratio in the presence of inhibitor, PSR0% is the product sum ratio in the absence of inhibitor and PSR100% is the product sum ratio in 100%-inhibition control samples. To determine IC50 values, the inhibition curves (Pinh versus inhibitor concentration) were fitted by 4 parameter sigmoid dose-response model using XLfit software (IDBS).

BTK = BTK (Homo sapiens (Human), UniProt Q06187); assay: Kinase inhibition assay (Nanosyn, microfluidic detection), BTK; assay type: biochemical; settings: 1 mM ATP, 3 hours at 25° C.
Procedure: The in vitro kinase assays were performed at Nanosyn (Santa Clara, Calif.) utilizing microfluidic detection technology. The test compounds were serially pre-diluted in DMSO and added, by the acoustic dispensing (Labcyte® 550), directly to 384 well assay plates into 10 uL of a buffer with enzyme (ITK, TXK, BTK or TEC) comprising: 100 mM HEPES, pH7.5, 5 mM MgCl2, 0.1% bovine serum albumin, 1 mM DTT, 0.01% Triton X-100 and the enzyme. Final DMSO concentration was maintained at 1% in all samples, including the controls. The reactions were initiated by addition of ATP (1 mM final concentration) and the fluorescently labeled peptide substrate to a final concentration of 1 uM, and incubated for 3 hours at 25° C. Following incubation, the reactions were quenched by addition of 40 μL of termination buffer (100 mM HEPES, pH7.5, 0.01% Triton X-100, 50 mM EDTA). Terminated plates were analyzed using Caliper LabChip® 3000 microfluidic electrophoresis instrument (Caliper Life Sciences/Perkin Elmer). The enzymatic modification of the peptide substrate (phosphorylation) results in a change of net charge enabling electrophoretic separation of product from substrate. As substrate and product are separated by electrophoresis, two peaks of fluorescence are observed. Change in the relative fluorescence intensity of the substrate and product peaks was the parameter measured, reflecting enzyme activity. In the presence of inhibitor, the ratio between product and substrate is altered: signal of the product decreases, while the signal of the substrate increases. Activity in each test sample was determined as the product to sum ratio (PSR): P/(S+P), where P is the peak height of the product and S is the peak height of the […]. For each compound, enzyme activity was measured at 12 concentrations spaced by 3× dilution intervals. Negative control samples (0%-inhibition in the absence of inhibitor, DMSO only) and positive control samples (100%-inhibition, in the absence of enzyme or in the presence of control inhibitor) were assembled in replicates of four and were used to calculate %-inhibition values in the presence of compounds. Percent inhibition (Pinh) was determined using the following equation: Pinh=(PSR0%−PSRinh)/(PSR0%−PSR100%)*100, where PSRinh is the product sum ratio in the presence of inhibitor, PSR0% is the product sum ratio in the absence of inhibitor and PSR100% is the product sum ratio in 100%-inhibition control samples. To determine IC50 values, the inhibition curves (Pinh versus inhibitor concentration) were fitted by 4 parameter sigmoid dose-response model using XLfit software (IDBS).

Chain of BTK (Q06187 whole entry): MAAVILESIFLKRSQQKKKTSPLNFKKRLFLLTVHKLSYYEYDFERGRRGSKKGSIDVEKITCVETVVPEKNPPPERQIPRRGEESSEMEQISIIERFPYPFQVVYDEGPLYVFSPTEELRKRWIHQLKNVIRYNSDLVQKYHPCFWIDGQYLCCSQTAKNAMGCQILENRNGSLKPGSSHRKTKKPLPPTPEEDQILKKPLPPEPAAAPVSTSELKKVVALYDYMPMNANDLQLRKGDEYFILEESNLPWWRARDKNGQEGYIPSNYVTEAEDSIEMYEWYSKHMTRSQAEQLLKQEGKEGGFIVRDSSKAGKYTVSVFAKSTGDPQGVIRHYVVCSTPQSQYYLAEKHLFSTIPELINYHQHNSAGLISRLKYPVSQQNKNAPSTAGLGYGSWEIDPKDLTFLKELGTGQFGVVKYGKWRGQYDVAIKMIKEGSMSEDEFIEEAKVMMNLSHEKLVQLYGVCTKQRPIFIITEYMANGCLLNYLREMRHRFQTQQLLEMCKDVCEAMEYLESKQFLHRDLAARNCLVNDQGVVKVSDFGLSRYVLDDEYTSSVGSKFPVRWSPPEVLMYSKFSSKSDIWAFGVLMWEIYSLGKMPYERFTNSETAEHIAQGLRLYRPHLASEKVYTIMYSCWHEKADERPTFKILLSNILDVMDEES
Chain of TXK (P42681 whole entry): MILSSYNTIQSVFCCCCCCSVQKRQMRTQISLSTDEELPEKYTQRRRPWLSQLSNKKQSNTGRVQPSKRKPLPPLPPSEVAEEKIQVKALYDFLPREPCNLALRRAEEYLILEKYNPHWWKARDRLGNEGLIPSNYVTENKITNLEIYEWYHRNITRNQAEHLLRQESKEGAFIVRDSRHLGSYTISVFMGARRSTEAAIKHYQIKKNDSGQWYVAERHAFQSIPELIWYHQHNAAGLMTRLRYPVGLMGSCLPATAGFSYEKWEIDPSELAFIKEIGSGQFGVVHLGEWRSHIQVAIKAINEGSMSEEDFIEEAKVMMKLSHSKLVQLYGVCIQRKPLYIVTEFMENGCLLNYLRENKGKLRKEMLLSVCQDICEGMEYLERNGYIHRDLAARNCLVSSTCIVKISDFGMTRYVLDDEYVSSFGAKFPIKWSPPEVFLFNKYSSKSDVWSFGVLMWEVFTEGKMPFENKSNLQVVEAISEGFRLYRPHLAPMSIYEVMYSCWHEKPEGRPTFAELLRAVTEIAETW

IC50 (TXK)	IC50 (BTK)	SMILES
3.9 nM	23.4 nM	C=CC(=O)N1CC[C@]2(C1)C[C@H](n1c(NC(=O)c3ccnn3C)nc3cc(CN[C@@H](C)C(C)(C)C)ccc31)C2 [Compound 14]
0.55 nM	4.4 nM	C=CC(=O)N1CC[C@]2(C1)C[C@H](n1c(NC(=O)c3ccc(C(F)F)s3)nc3ccccc31)C2 [Compound 15]
1.84 nM	4.52 nM	C=CC(=O)N1CC[C@]2(C1)C[C@H](n1c(NC(=O)c3ccncc3)nc3cc(CN[C@@H](C)C(C)(C)C)ccc31)C2 [Compound 20]
1.22 nM	1.54 nM	C=CC(=O)N1CC[C@]2(C1)C[C@H](n1c(NC(=O)c3ccno3)nc3cc(CN[C@@H](C)C(C)(C)C)ccc31)C2 [Compound 21]
1.71 nM	4.79 nM	C=CC(=O)N1CC[C@]2(C1)C[C@H](n1c(NC(=O)c3cccnc3)nc3cc(CN[C@@H](C)C(C)(C)C)ccc31)C2 [Compound 22]
0.99 nM	5.47 nM	C=CC(=O)N1CC[C@]2(C1)C[C@H](n1c(NC(=O)c3ccnc(C)c3)nc3cc(CN[C@@H](C)C(C)(C)C)ccc31)C2 [Compound 24]
0.99 nM	2.84 nM	C=CC(=O)N1CC[C@]2(C1)C[C@H](n1c(NC(=O)c3ccc(C)nc3)nc3cc(CN[C@@H](C)C(C)(C)C)ccc31)C2 [Compound 26]
0.63 nM	1.7 nM	C#Cc1ccc(C(=O)Nc2nc3cc(CN[C@@H](C)C(C)(C)C)ccc3n2[C@H]2C[C@@]3(CCN(C(=O)C=C)C3)C2)s1 [Compound 28]
0.27 nM	0.84 nM	C=CC(=O)N1CC[C@]2(C1)C[C@H](n1c(NC(=O)c3ccc(-c4cc[nH]c(=O)c4)s3)nc3cc(CO)ccc31)C2 [Compound 29]
1.03 nM	5.38 nM	C=CC(=O)N1CC[C@]2(C1)C[C@H](n1c(NC(=O)c3ccc(-c4ccc(N)nc4)s3)nc3ccccc31)C2 [Compound 31]
0.7 nM	5.45 nM	C=CC(=O)N1CC[C@]2(C1)C[C@H](n1c(NC(=O)c3ccc(OC)nc3)nc3cc(CN[C@@H](C)C(C)(C)C)ccc31)C2 [Compound 32]
0.32 nM	0.78 nM	C=CC(=O)N1CC[C@]2(C1)C[C@H](n1c(NC(=O)c3ccc(-c4ccccc4)nc3)nc3cc(CN[C@@H](C)C(C)(C)C)ccc31)C2 [Compound 33]
0.45 nM	1.39 nM	C=CC(=O)N1CC[C@]2(C1)C[C@H](n1c(NC(=O)c3ccc(C(F)F)s3)nc3cc(CN4CCCC4)ccc31)C2 [Compound 34]
0.46 nM	1.04 nM	C=CC(=O)N1CC[C@]2(C1)C[C@H](n1c(NC(=O)c3ccc(C(F)F)s3)nc3cc(CN[C@H]4CC[C@H](O)CC4)ccc31)C2 [Compound 35]
0.63 nM	1.14 nM	C=CC(=O)N1CC[C@]2(C1)C[C@H](n1c(NC(=O)c3ccc(C(F)F)s3)nc3cc(CN[C@H]4C[C@H](O)C4)ccc31)C2 [Compound 36]
0.67 nM	4.08 nM	C=CC(=O)N1CC[C@]2(C1)C[C@H](n1c(NC(=O)c3cccc(-c4cnco4)c3)nc3cc(CN[C@@H](C)C(C)(C)C)ccc31)C2 [Compound 38]
0.97 nM	5.67 nM	C=CC(=O)N1CC[C@]2(C1)C[C@H](n1c(NC(=O)c3ccc(-c4cnco4)cc3)nc3cc(CN[C@@H](C)C(C)(C)C)ccc31)C2 [Compound 39]
0.72 nM	1.16 nM	C=CC(=O)N1CC[C@]2(C1)C[C@H](n1c(NC(=O)c3ccc(-c4cnco4)s3)nc3cc(CN4CCCC4)ccc31)C2 [Compound 40]

IC50 (TXK)	IC50 (BTK)	SMILES
0.92 nM	1.81 nM	C=CC(=O)N1CC[C@]2(C1)C[C@H](n1c(NC(=O)c3ccc(-c4cnco4)s3)nc3cc(CN4CCOCC4)ccc31)C2 [Compound 41]
0.32 nM	0.53 nM	C=CC(=O)N1CC[C@]2(C1)C[C@H](n1c(NC(=O)c3ccc(-c4cnco4)s3)nc3cc(CN[C@H]4C[C@H](O)C4)ccc31)C2 [Compound 43]
1.1 nM	1.44 nM	C=CC(=O)N1CC[C@]2(C1)C[C@H](n1c(NC(=O)c3ccns3)nc3ccccc31)C2 [Compound 46]
2.69 nM	11.3 nM	C=CC(=O)N1CC[C@]2(C1)C[C@H](n1c(NC(=O)c3ccc(C)nc3)nc3ccccc31)C2 [Compound 47]
1.16 nM	4.37 nM	C=CC(=O)N1CC[C@]2(C1)C[C@H](n1c(NC(=O)c3ccc(C#N)cc3)nc3ccccc31)C2 [Compound 48]
1.39 nM	13.7 nM	C=CC(=O)N1CC[C@]2(C1)C[C@H](n1c(NC(=O)c3cccc(-c4cnco4)c3)nc3ccccc31)C2 [Compound 49]
0.44 nM	0.73 nM	C=CC(=O)N1CC[C@]2(C1)C[C@H](n1c(NC(=O)c3ccc(-c4cnco4)s3)nc3cc(N(C)C(=O)C4CCOCC4)ccc31)C2 [Compound 51]
0.39 nM	0.58 nM	C=CC(=O)N1CC[C@]2(C1)C[C@H](n1c(NC(=O)c3ccc(-c4cnco4)s3)nc3cc(N(C)C(=O)C4CC4)ccc31)C2 [Compound 52]
0.39 nM	0.64 nM	C=CC(=O)N1CC[C@]2(C1)C[C@H](n1c(NC(=O)c3ccc(-c4cnco4)s3)nc3cc(N(C)C(C)=O)ccc31)C2 [Compound 53]
0.3 nM	0.56 nM	C=CC(=O)N1CC[C@]2(C1)C[C@H](n1c(NC(=O)c3ccc(-c4cnco4)s3)nc3cc(N(C)C(=O)C(C)C)ccc31)C2 [Compound 54]
3.41 nM	27.4 nM	C=CC(=O)N1CC[C@]2(C1)C[C@H](n1c(NC(=O)c3ccc(OC)nc3)nc3ccccc31)C2 [Compound 55]
0.26 nM	1.56 nM	C=CC(=O)N1CC[C@]2(C1)C[C@H](n1c(NC(=O)c3ccc(-c4cnco4)s3)nc3cccc(F)c31)C2 [Compound 56]
0.29 nM	1.32 nM	C=CC(=O)N1CC[C@]2(C1)C[C@H](n1c(NC(=O)c3ccc(-c4cnco4)s3)nc3ccc(F)cc31)C2 [Compound 58]
0.44 nM	1.64 nM	C=CC(=O)N1CC[C@]2(C1)C[C@H](n1c(NC(=O)c3ccc(-c4cnco4)s3)nc3cc(N(C)C(=O)[C@H](C)N4CCOCC4)ccc31)C2 [Compound 59]
0.4 nM	1.15 nM	C=CC(=O)N1CC[C@]2(C1)C[C@H](n1c(NC(=O)c3ccc(-c4cnco4)s3)nc3cc(N(C)C(=O)C4CCCCC4)ccc31)C2 [Compound 60]
0.49 nM	6.77 nM	C=CC(=O)N1CC[C@]2(C1)C[C@H](n1c(NC(=O)c3ccc(-c4cnco4)s3)nc3c(F)cccc31)C2 [Compound 61]
1.58 nM	10.5 nM	C=CC(=O)N1CC[C@]2(C1)C[C@@H](n1c(NC(=O)c3ccc(-c4cnco4)s3)nc3cccc(F)c31)C2 [Compound 62]
0.37 nM	1.29 nM	C=CC(=O)N1CC[C@]2(C1)C[C@H](n1c(NC(=O)c3ccc(-c4cnco4)s3)nc3cc(Cl)ccc31)C2 [Compound 63]
